ChEMBL document CHEMBL1129169, “Preparation of N-methoxycarbonyl-N-[2-nitro-4(5)-propylthiophenyl]thiourea as prodrugs of albendazole” (1996)
Where “and” joins values, the source holds several entries; their conditions need not be identical. Equal values may be shown once.

Tests used:
[1] = species on record: Rattus norvegicus; test: Bioconversion to albendazole in rats at 8 hr; format: functional
[2] = species on record: Rattus norvegicus; test: Bioconversion to albendazole sulfonic in rats at 8 hr; detectable; format: functional, organism-based
[3] = species on record: Rattus norvegicus; test: Bioconversion to albendazole sulfonic in rats at 10 hr; not detectable; format: functional, organism-based
[4] = species on record: Rattus norvegicus; test: Bioconversion to albendazole in rats at 10 hr; detectable; format: functional, organism-based
[5] = species on record: Rattus norvegicus; test: Bioconversion to albendazole in rats at 2 hr; not detectable; format: functional, organism-based
[6] = species on record: Rattus norvegicus; test: Bioconversion to albendazole sulfonic in rats at 10 hr; format: functional
[7] = species on record: Rattus norvegicus; test: Bioconversion to albendazole sulfonic in rats at 8 hr; not detectable; format: functional, organism-based
[8] = species on record: Rattus norvegicus; test: Bioconversion to albendazole in rats at 4 hr; not detectable; format: functional, organism-based
[9] = species on record: Rattus norvegicus; test: Bioconversion to albendazole sulfonic in rats at 12 hr; format: functional
[10] = species on record: Rattus norvegicus; test: Bioconversion to albendazole sulfonic in rats at 6 hr; not detectable; format: functional, organism-based
[11] = species on record: Rattus norvegicus; test: Bioconversion to albendazole sulfonic in rats at 4 hr; not detectable; format: functional, organism-based
[12] = species on record: Rattus norvegicus; test: Bioconversion to albendazole sulfonic in rats at 12 hr; not detectable; format: functional, organism-based
[13] = species on record: Rattus norvegicus; test: Bioconversion to albendazole in rats at 12 hr; not detectable; format: functional, organism-based
[14] = species on record: Rattus norvegicus; test: Bioconversion to albendazole sulfonic in rats at 4 hr; format: functional
[15] = species on record: Rattus norvegicus; test: Bioconversion to albendazole in rats at 8 hr; not detectable; format: functional, organism-based
[16] = species on record: Rattus norvegicus; test: Bioconversion to albendazole sulfonic in rats at 2 hr; not detectable; format: functional, organism-based
[17] = species on record: Rattus norvegicus; test: Bioconversion to albendazole in rats at 2 hr; format: functional
[18] = species on record: Rattus norvegicus; test: Bioconversion to albendazole in rats at 2 hr; detectable; format: functional, organism-based
[19] = species on record: Rattus norvegicus; test: Bioconversion to albendazole sulfonic in rats at 6 hr; format: functional
[20] = species on record: Rattus norvegicus; test: Bioconversion to albendazole in rats at 12 hr; detectable; format: functional, organism-based
[21] = species on record: Rattus norvegicus; test: Bioconversion to albendazole in rats at 6 hr; detectable; format: functional, organism-based
[22] = species on record: Rattus norvegicus; test: Bioconversion to albendazole sulfonic in rats at 2 hr; format: functional
[23] = species on record: Rattus norvegicus; test: Bioconversion to albendazole in rats at 8 hr; detectable; format: functional, organism-based
[24] = species on record: Rattus norvegicus; test: Bioconversion to albendazole in rats at 4 hr; detectable; format: functional, organism-based
[25] = species on record: Rattus norvegicus; test: Bioconversion to albendazole in rats at 12 hr; format: functional
[26] = species on record: Rattus norvegicus; test: Bioconversion to albendazole sulfonic in rats at 8 hr; format: functional
[27] = species on record: Rattus norvegicus; test: Bioconversion to albendazole in rats at 6 hr; not detectable; format: functional, organism-based

SMILES: CCCSc1ccc([N+](=O)[O-])c(NC(=S)NC(=O)OC)c1
- Activity [1]: 0.0792 µg/mL
- Activity [2]: Detectable
- Activity [3]: Not detectable
- Activity [4]: Detectable
- Activity [5]: Not detectable
- Activity [6]: 0.0889 µg/mL
- Activity [7]: Not detectable
- Activity [8]: Not detectable
- Activity [9]: 0.1622 µg/mL
- Activity [10]: Not detectable
- Activity [11]: Not detectable
- Activity [12]: Not detectable
- Activity [13]: Not detectable
- Activity [14]: 0.096 µg/mL
- Activity [15]: Not detectable
- Activity [16]: Not detectable

SMILES: CCCSc1ccc2[nH]c(NC(=O)OC)nc2c1 [ALBENDAZOLE]
- Activity [17]: 0.055 µg/mL
- Activity [18]: Detectable
- Activity [4]: Detectable
- Activity [19]: 0.2875 µg/mL and 0.4081 µg/mL
- Activity [20]: Detectable
- Activity [6]: 0.2696 µg/mL and 0.1297 µg/mL
- Activity [21]: Detectable
- Activity [22]: 0.593 µg/mL and 0.245 µg/mL
- Activity [14]: 0.3084 µg/mL and 0.1935 µg/mL
- Activity [23]: Detectable
- Activity [24]: Detectable
- Activity [25]: 0.098 µg/mL
- Activity [26]: 0.28 µg/mL and 0.1113 µg/mL

SMILES: CCCSc1ccc(NC(=S)NC(=O)OC)c([N+](=O)[O-])c1
- Activity [18]: Detectable
- Activity [3]: Not detectable
- Activity [4]: Detectable
- Activity [19]: 0.1633 µg/mL
- Activity [20]: Detectable
- Activity [21]: Detectable
- Activity [22]: 0.1802 µg/mL and 0.1088 µg/mL
- Activity [7]: Not detectable
- Activity [8]: Not detectable
- Activity [9]: 0.2704 µg/mL
- Activity [10]: Not detectable
- Activity [27]: Not detectable
- Activity [14]: 0.0927 µg/mL and 0.0958 µg/mL
- Activity [23]: Detectable
